In PMC12024213, “Mechanism Insight of Cell Death Signaling by Thymol Derivatives on Trypanosomatidae Protozoan Parasites” (Antibiotics, 2025):
Like-named read-outs stand apart in the source and are kept apart here.

Key:
[1] = alamarBlue assay on L. amazonensis promastigotes; type: cell-based, Leishmania amazonensis; conditions: mouse; CC50 J774.A1 / IC50 L. amazonensis promastigotes; read-out: Selectivity Leishmania SI (CC50/IC50)
Description: (§1) The assay was conducted using the alamarBlue® method as previously described. Briefly, promastigotes of L. amazonensis were grown at 26 °C in Schneider’s medium (US Biological, Life sciences) and supplemented with 10% heat-inactivated fetal bovine serum and 0.04% of sodium bicarbonate. In a 96-well microtiter plates (Corning™, Corning, NY, USA) a serial dilutions of thymol derivatives were first prepared, and later, 10^6 parasites/mL were added into each well. Subsequently, 10% of alamarBlue® was added to the entire plate. The plates were incubated for 72 h at 26 °C.
(§2) Cytotoxicity effect of the tested derivatives was conducted using macrophages of the murine cell line J774.A1 (American Type Culture Collection #TIB-67, city, country), as previously described. The cells were maintained in DMEM at 37 °C in a 5% CO2 humidified incubator. All the plates containing alamarBlue® were analyzed using a plate reader EnSpire Multimode Plate Reader® at excitation and emission wavelengths of 570 and 585 nm, respectively (PerkinElmer, ThermoFisher Scientific, Madrid, Spain). The IC50 (concentrations able to inhibit 50% of parasites), IC90 (concentrations able to inhibit 90% of parasites), and CC50 (concentration able to inhibit 50% of murine macrophages) values were determined for each compound by nonlinear regression using GraphPad software.

[2] = test system: L. amazonensis promastigotes; test: alamarBlue assay on L. amazonensis promastigotes; type: cell-based, Leishmania amazonensis; conditions: Leishmania amazonensis
Description: as §1, §2

L. amazonensis [3] = test system: L. amazonensis
Description: (§3) The effect of derivatives 9 and 10 to modulate cell features was studied in the tested protozoa parasites, using various specific commercial kits. Parasite cells were incubated with the derivative at the previously calculated IC90 for 24 h. Subsequently, cells were washed and submitted to different treatments as mentioned by the manufacturer’s instructions. In all the assays, a plate reader EnSpire Multimode Plate Reader® and/or an image base system fluorescence microscope EVOS M5000 were used for the fluorescence intensity quantification. For each protocol, images of representative population cells were obtained using an inverted confocal microscope Leica DMI 4000 B with LAS X software, and Leica HC PL APO 63×/1.40 OIL CS2 Objective (Barcelona, Spain). The SYTOX™ Green (Life Technologies, Madrid, Spain), a cell impermeable DNA binding stain, was used to evaluate the membrane permeability and integrity. The assay was conducted as detailed in the manufacture instructions, and as previously described.

T. cruzi [4] = test system: T. cruzi
Description: as §3

T. cruzi epimastigotes = test: Mitochondrial membrane potential, JC-1, T. cruzi; type: cell-based, Trypanosoma cruzi; conditions: JC-1 red/green ratio, IC90, 24 h
Description: The measurement of mitochondrial membrane potential was carried out using the JC-1 assay. JC-1 is a mitochondria-specific stain whose fluorescence emission depends on the mitochondrial membrane potential. In healthy mitochondria, JC-1 aggregates and emits red fluorescence, whereas in unhealthy mitochondria, it remains in monomeric form and emits green fluorescence. […] The assay was performed according to the manufacturer’s instructions, as detailed in a previous study.

T. cruzi [5] = test: Atomic force microscopy, T. cruzi; type: cell-based, Trypanosoma cruzi; conditions: IC90, 12 and 24 h
Description: (§4) […] After incubation, cells were washed twice with PBS, and 10 µL of a 10^5 cells/mL suspension was smeared onto glass slides. Prior to AFM analysis, samples were dried for 10 min. AFM topographic images were acquired in Peak Force mode using a multimode microscope equipped with a Nanoscope V control unit (Bruker). Scans were performed at rates of 0.5–1.2 Hz, employing FESP tips (50–100 kHz, 1–5 N/m) from Bruker. The damage caused by derivative 9 in both parasites was assessed by recording images at scales ranging from 100 µm × 100 µm to 0.6 µm × 0.6 µm, with a resolution of 512 points per line.

L. amazonensis [6] = test: Atomic force microscopy, L. amazonensis; type: cell-based, Leishmania amazonensis; conditions: IC90, 12 and 24 h
Description: as §4

L. amazonensis [7] = test: Intracellular ROS, CellROX Deep Red, L. amazonensis; type: cell-based, Leishmania amazonensis; conditions: 24 h incubation
Description: (§5) The measure of reactive oxygen species (ROS) was measured after treatment of 24 h using CellROX® Deep Red fluorescent probe (Invitrogen, Madrid, Spain). The mitochondria constitute an essential organelle to neutralize the reactive oxygen species; the malfunction of this organelle would generate an imbalance between the antioxidants and the reactive oxygen.

T. cruzi [8] = test: Intracellular ROS, CellROX Deep Red, T. cruzi; type: cell-based, Trypanosoma cruzi; conditions: 24 h incubation
Description: as §5

[9] = 72 h, promastigotes, alamarBlue, 72 h at 26 °C, mean ± SD, triplicates, read-out: L. amazonensis Promastigote IC50

SMILES | selectivity ratio [1] | IC50 [2, 9] [µM] | plasma membrane permeability (SYTOX Green) (L. amazonensis [3]) | plasma membrane permeability (SYTOX Green) (T. cruzi [4]) | decrease of mitochondrial membrane potential (ΔΨm) (T. cruzi epimastigotes) [%] | morphological effects (AFM) (T. cruzi [5]) | IC50 ([2]; abstract, stage not stated, read-out: IC50 against L. amazonensis (abstract)) [µM] | morphological effects (AFM) (L. amazonensis [6]) | intracellular ROS (CellROX Deep Red) (L. amazonensis [7]) | intracellular ROS (CellROX Deep Red) (T. cruzi [8])
Cc1ccc(C(C)C)c(OC(=O)c2ccccn2)c1 [Derivative 10, thymyl picolinate] | 7.4 | 34.4 ± 2.3 | greater damage to membrane permeability | greater damage to membrane permeability | – | – | – | – | – | –
COc1ccc(C(=O)Oc2cc(C)ccc2C(C)C)cc1 [Derivative 9, thymyl anysoate] | > 10.3 | 29.1 ± 3.8 | – | – | 70 | induced the formation of giant vacuoles in the cytoplasm | 22.9 | induced the formation of giant vacuoles in the cytoplasm | induced oxidative stress | induced oxidative stress
